Patent publication US10294202B2, “Pyrrolidinones as herbicides” (FMC Corporation, priority 2013, dated 2019)

Key:
[1] = system: wheat (winter wheat); assay: Test C pre-/postemergence herbicide test; assay type: in vivo, Triticum aestivum; conditions: Preemergence; for Plant response rating, Wheat: 125 g ai/ha
From the text: (§1) Seeds of plant species selected from blackgrass (Alopecurus myosuroides), ryegrass, Italian (Italian ryegrass, Lolium multiflorum), wheat (winter wheat, Triticum aestivum), galium (catchweed bedstraw, Galium aparine), corn (Zea mays), crabgrass, large (large crabgrass, Digitaria sanguinalis), foxtail, giant (giant foxtail, Setaria faberii), johnsongrass (Sorghum halepense), lambsquarters (Chenopodium album), morningglory (Ipomoea coccinea), nutsedge, yellow (yellow nutsedge, Cyperus esculentus), pigweed (Amaranthus retroflexus), ragweed (common ragweed, Ambrosia elatior), soybean (Glycine max), barnyardgrass (Echinochloa crus-galli), oilseed rape (Brassica napus), waterhemp (common waterhemp, Amaranthus rudis), kochia (Kochia scoparia), oat, wild (wild oat, Avena fatua), surinam grass (Brachiaria decumbens), foxtail, green (green foxtail, Setaria viridis), goosegrass (Eleusine indica), bromegrass, downy (downy bromegrass, Bromus tectorum), nightshade (eastern black nightshade, Solanum ptycanthum), cocklebur (common cocklebur, Xanthium strumarium), cupgrass, woolly (woolly cupgrass, Eriochloa villosa), bermudagrass (Cynodon dactylon), sunflower, (common oilseed sunflower, Helianthus annuus), Russian thistle (Salsola kali) and velvetleaf (Abutilon theophrasti) were planted into a blend of loam soil and sand and treated preemergence with test chemicals formulated in a non-phytotoxic solvent mixture which included a surfactant. At the same time, plants selected from these crop and weed species and also barley (winter barley, Hordeum vulgare), […]), chickweed (common chickweed, Stellaria media), deadnettle (henbit deadnettle, Lamium amplexicaule), and canarygrass (littleseed canarygrass, Phalaris minor) were planted in pots containing Redi-Earth® planting medium (Scotts Company, 14111 Scottslawn Road, Marysville, Ohio 43041) comprising spaghnum peat moss, vermiculite, wetting agent and starter nutrients and treated with postemergence applications of test chemicals formulated in the same manner. Plants ranged in height from 2 to 18 cm (1- to 4-leaf stage) for postemergence treatments. Treated plants and controls were maintained in a greenhouse for 13 to 15 days, after which time all species were compared to controls and visually evaluated. Plant response ratings, summarized in Table C, are based on a scale of 0 to 100 where 0 is no effect and 100 is complete control. A dash (-) response means no test result.

[2] = system: rice; assay: Test B flooded paddy test; assay type: in vivo, Oryza sativa; conditions: Flood, scale of 0 to 100 where 0 is no effect and 100 is complete control
In short: (§2)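 Scoring: visual, compared with untreated controls, 0 = no effect through 100 = complete control, taken 13 to 15 days after treatment in the greenhouse. Compounds had been added to paddy water over soil flooded 3 cm deep at the plants' 2-leaf stage.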

[3] = system: sedge, umbrella; assay: Test B flooded paddy test; assay type: in vivo, Cyperus difformis; conditions: Flood, scale of 0 to 100 where 0 is no effect and 100 is complete control
In short: as §2

[4] = system: pigweed; assay: Test A pre-/postemergence herbicide test; assay type: in vivo, Amaranthus retroflexus
In short: (§3)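 Visual 0–100 ratings (100 = complete control) made about 10 days after treatment, greenhouse-held plants compared with untreated controls. Treatments: postemergence sprays on one- to two-leaf plants (2–10 cm tall) and preemergence directed soil sprays after planting in loam–sand, chemicals formulated in non-phytotoxic solvent containing surfactant.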

[5] = system: ragweed; assay: Test C pre-/postemergence herbicide test; assay type: in vivo, Ambrosia elatior; conditions: Preemergence; for Plant response rating, Ragweed: 125 g ai/ha
In short: (§4)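 Greenhouse plants scored visually against untreated controls 13–15 days after treatment, 0 = no effect, 100 = complete control. Test chemicals in a non-phytotoxic solvent with surfactant were applied either to soil (loam/sand) at planting or to foliage of 1- to 4-leaf plants, 2–18 cm tall.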

[6] = system: barnyardgrass; assay: Test B flooded paddy test; assay type: in vivo, Echinochloa crus-galli; conditions: Flood, scale of 0 to 100 where 0 is no effect and 100 is complete control
In short: as §2

[7] = system: corn; assay: Test A pre-/postemergence herbicide test; assay type: in vivo, Zea mays; conditions: Postemergence
In short: as §3

[8] = system: morningglory; assay: Test C pre-/postemergence herbicide test; assay type: in vivo, Ipomoea coccinea; conditions: Preemergence; for Plant response rating, Morningglory: 125 g ai/ha; for Plant response rating (scale of 0 to 100), Morningglory: 250 g ai/ha
From the text: as §1

[9] = system: wheat; assay: Test A pre-/postemergence herbicide test; assay type: in vivo, Triticum aestivum; conditions: Postemergence
In short: as §3

[10] = system: waterhemp; assay: Test C pre-/postemergence herbicide test; assay type: in vivo, Amaranthus rudis; conditions: Preemergence; for Plant response rating, Waterhemp: 125 g ai/ha
From the text: as §1

[11] = system: oilseed rape; assay: Test C pre-/postemergence herbicide test; assay type: in vivo, Brassica napus; conditions: Preemergence; for Plant response rating, Oilseed Rape: 125 g ai/ha; for Plant response rating (scale of 0 to 100), Oilseed Rape: 250 g ai/ha
In short: as §4

[12] = 31 g ai/ha, scale 0 to 100, 0 is no effect and 100 is complete control
[13] = 62 g ai/ha, scale 0 to 100 (0 no effect, 100 complete control)
[14] = scale 0 to 100 (0 no effect, 100 complete control)
[15] = 125 g ai/ha, 0 to 100 scale, 0 is no effect, 100 is complete control
[16] = Postemergence, 125 g ai/ha, visual rating on 0 to 100 scale (0 no effect, 100 complete control), approx. 10 days
[17] = Postemergence, 500 g ai/ha, 0 to 100 scale (0 no effect, 100 complete control)
[18] = Preemergence, 125 g ai/ha, 0 to 100 scale where 0 is no effect and 100 is complete control
[19] = Preemergence, 500 g ai/ha, visual rating on 0 to 100 scale (0 no effect, 100 complete control)
[20] = 125 g ai/ha, visual rating on 0 to 100 scale (0 no effect, 100 complete control), approx. 10 days
[21] = 500 g ai/ha, 0 to 100 scale (0 no effect, 100 complete control)

| Compound | Wheat plant response rating [1, 13] | Plant response rating, Rice ([2]; 500 g ai/ha) | Plant response rating, Sedge, Umbrella ([3]; 500 g ai/ha) | Ragweed plant response rating [5, 13] | Plant response rating, Barnyardgrass ([6]; 500 g ai/ha) | Morningglory plant response rating [8, 12] | Morningglory plant response rating [8, 13] | Plant response rating (scale of 0 to 100), Morningglory [8] | Waterhemp plant response rating [10, 13] | Oilseed Rape plant response rating [11, 12] | Oilseed Rape plant response rating [11, 13] | Plant response rating (scale of 0 to 100), Oilseed Rape [11] | Plant response rating, Wheat ([1]; scale 0 to 100) | Plant response rating, Pigweed [4, 16] | Plant response rating, Pigweed [4, 18] | Pigweed plant response rating [4, 19] | Plant response rating, Ragweed ([5]; scale 0 to 100) | Plant response rating, Corn [7, 20] | Plant response rating, Corn [7, 21] | Plant response rating, Morningglory ([8]; scale 0 to 100) | further results |
| --- | --- | --- | --- | --- | --- | --- | --- | --- | --- | --- | --- | --- | --- | --- | --- | --- | --- | --- | --- | --- | --- |
| O=C1NCC(c2ccc(C(F)(F)F)cc2)C1C(=O)Nc1ccccc1F (centres unmarked) [Compound 231] | 15 | 0 | 0 | 100 | 0 | 0 | 0 | 20 | 85 | 0 | 55 | 90 |  |  |  |  |  |  |  |  | Wheat plant response rating [1, 12]: 0; Plant response rating, Wheat [1, 14]: 20; Plant response rating (scale of 0 to 100), Wheat ([1]; 250 g ai/ha): 80; Plant response rating, Pigweed ([4]; 125 g ai/ha, visual rating, 0 to 100 scale, 0 no effect, 100 complete control, approximately 10 days, preemergence): 70; Plant response rating, Pigweed ([4]; Postemergence, 125 g ai/ha, 0 to 100 scale, 0 is no effect, 100 is complete control): 0; Pigweed plant response rating (0 to 100 scale, 0 is no effect, 100 is complete control) ([4]; Postemergence, 500 g ai/ha): 40; Plant response rating, Pigweed ([4]; preemergence, 500 g ai/ha, 0 to 100 scale, 0 is no effect and 100 is complete control): 70; Ragweed plant response rating [5, 12]: 80; Plant response rating, Ragweed [5, 14]: 80; Plant response rating (scale of 0 to 100), Ragweed ([5]; 250 g ai/ha): 85; Plant response rating, Corn [7, 15]: 30; Corn plant response rating (0 to 100 scale, 0 is no effect, 100 is complete control) ([7]; 500 g ai/ha): 40; Plant response rating, Morningglory [8, 14]: 0; Plant response rating, Wheat [9, 15]: 20; Wheat plant response rating (0 to 100 scale, 0 is no effect, 100 is complete control) ([9]; 500 g ai/ha): 30; Waterhemp plant response rating [10, 12]: 75; Plant response rating, Waterhemp [10, 14]: 100; Plant response rating (scale of 0 to 100), Waterhemp ([10]; 250 g ai/ha): 95; Plant response rating, Oilseed Rape [11, 14]: 85 |
| CC(C)c1cccc(C2CNC(=O)C2C(=O)Nc2ccccc2F)c1 (centres unmarked) [Compound 318] | 0 | 15 | 0 | 0 | 75 | 30 | 40 | 40 | 30 | 0 | 0 | 5 | 5 | 20 | 0 | 20 | 0 | 20 | 50 | 30 | Plant response rating, Pigweed [4, 17]: 20; Plant response rating, Wheat [9, 20]: 20; Plant response rating, Wheat [9, 21]: 30; Plant response rating, Waterhemp ([10]; scale 0 to 100): 10; Plant response rating, Oilseed Rape ([11]; scale 0 to 100): 5 |
| CC(C)c1cccc(C2CNC(=O)C2C(=O)Nc2cccc(F)c2F)c1 (centres unmarked) [Compound 319] | 0 | 0 | 0 | 15 | 70 | 55 | 40 | 40 | 35 | 0 | 5 | 65 | 10 | 0 | 0 | 20 | 40 | 40 | 80 | 45 | Plant response rating, Pigweed [4, 17]: 20; Plant response rating, Wheat [9, 20]: 20; Plant response rating, Wheat [9, 21]: 50; Plant response rating, Waterhemp ([10]; scale 0 to 100): 35; Plant response rating, Oilseed Rape ([11]; scale 0 to 100): 60 |
| O=C1NCC(c2cccc(C(F)(F)F)c2)C1C(=O)Nc1ccc(F)c(F)c1F (centres unmarked) [Compound 345] | 10 |  |  | 40 |  | 25 | 0 | 35 | 5 | 50 | 55 | 85 | 70 | 20 | 0 | 70 | 15 | 80 | 90 | 0 | Plant response rating, Rice ([2]; 1000 g ai/ha): 0; Plant response rating, Sedge, Umbrella ([3]; 1000 g ai/ha): 0; Plant response rating, Barnyardgrass ([6]; 1000 g ai/ha): 0; Plant response rating, Wheat [9, 20]: 50; Plant response rating, Waterhemp ([10]; scale 0 to 100): 40; Plant response rating, Oilseed Rape ([11]; scale 0 to 100): 85 |
